Laboratory results: patent US7432269B2, “Arylpiperaszine derivatives, to the process for the production thereof and to the use thereof as therapeutic agents” (Bioprojet, priority 2004, dated 2008)
Counter-ions that a name gives are not always drawn.

Tests used:
[1] = target: T1, human D3 dopamine receptor (hD3) (Homo sapiens, UniProt P35462); experiment: [3H]spiperone binding to human D3 dopamine receptor (transfected CHO cell membranes); conditions: CHO cells transfected with hD3
T1 construct: expressed in transfected cells; host or cells: CHO cells
Description: CHO cells were transfected with the gene coding for the human D3 dopamine receptor (hD3). [^3H]spiperone binding (0.5 to 2 nM) is performed in the presence of 5 to 10 μg of membrane proteins in a medium containing 120 mM of NaCl, 5 mM of KCl, and 50 mM of Tris-HCl pH 7.4; incubation of 60 minutes at ambient temperature is necessary. Non-specific binding is estimated in the presence of 5 μM of haloperidol. Non-transfected cells have absolutely no binding activity.

[2] = system: human alpha-1 adrenergic receptor (hα1); experiment: [3H]prasozin binding to human alpha-1 adrenergic receptor (transfected HEK 293 cell membranes); conditions: HEK 293 cells transfected with hα1
Description: HEK 293 cells were transfected with the gene coding for the human alpha-1 adrenergic receptor (hα1). [3H]prasozin binding (0.02 to 2 nM) is performed in the presence of 5 to 10 μg of membrane proteins in a medium containing 0.5 mM of EDTA and 50 mM of Tris-HCl pH 7.4; incubation of 60 minutes at ambient temperature is necessary. Non-specific binding is estimated in the presence of 10 μM of phentolamine. Non-transfected cells have absolutely no binding activity.

T1 sequence (P35462 whole entry): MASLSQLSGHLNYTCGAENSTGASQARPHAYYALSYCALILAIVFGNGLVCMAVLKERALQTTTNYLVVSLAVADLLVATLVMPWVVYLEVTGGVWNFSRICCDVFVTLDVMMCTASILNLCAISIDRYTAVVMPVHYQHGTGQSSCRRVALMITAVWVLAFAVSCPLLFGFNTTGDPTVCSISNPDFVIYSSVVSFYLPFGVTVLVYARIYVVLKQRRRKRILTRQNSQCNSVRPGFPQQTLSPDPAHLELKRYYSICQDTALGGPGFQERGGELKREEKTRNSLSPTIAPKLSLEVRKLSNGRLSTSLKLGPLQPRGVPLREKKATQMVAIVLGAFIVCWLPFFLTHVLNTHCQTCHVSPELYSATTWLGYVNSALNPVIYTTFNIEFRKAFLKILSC

In the case of `FC(F)(F)c1cccc(N2CCN(CCCCNc3cc(-c4ccccc4)ccn3)CC2)c1` [Example 4, 2-{4-[4-(3-trifluoromethyl-phenyl)piperazin-1-yl]butyl}amino-4-phenylpyridine dihydrochloride], the Ki [1] is reported as 0.76 nM and the Ki [2] is reported as 162 nM.

`Clc1cccc(N2CCN(CCCCNc3cc(-c4ccccc4)ccn3)CC2)c1Cl` [Example 6, 2-{4-[4-(2,3-dichlorophenyl)piperazin-1-yl]butyl}amino-4-phenylpyridine] gave a Ki [1] of 0.55 nM and a Ki [2] of 136 nM.
